Test systems include SNB-75 CNS; HS 578T breast; ACHN renal; K-562 leukemia; NCI-H23 lung; SNB-19 CNS; SN12C renal; PC-3 prostate; MDA-MB-435; CAKI-1 renal; OVCAR-8 ovarian; MDA-N; NCI-H226 lung; A498 renal; CCRF-CEM leukemia; SR leukemia; SK-MEL-2 melanoma; HT29 colon; A549 NSCLC; HCC-2998 colon.
Common to all, as to assay: DTP human tumour cell line panel, 48 h

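1) Cells in 96-well plates. 2) Compound, 48 h, 5 concentrations. 3) Linear interpolation between surrounding doses. 4) Unreached endpoint = highest concentration. The concentration for full growth arrest is given as TGI.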

Consider `Brc1cccc(N=NN2CCCC2)c1`, for which the concentration for total growth inhibition (TGI) in the experiment with SNB-75 CNS, in the experiment on HS 578T breast, with ACHN renal, in the experiment with K-562 leukemia, with NCI-H23 lung and in the experiment on SNB-19 CNS was greater than 100 µM throughout. The TGI in the experiment on SN12C renal, in the experiment on PC-3 prostate, in the experiment on MDA-MB-435, in the experiment with CAKI-1 renal, in the experiment with OVCAR-8 ovarian and with MDA-N was greater than 100 µM throughout. The TGI with NCI-H226 lung, with A498 renal, in the experiment on CCRF-CEM leukemia, with SR leukemia and with SK-MEL-2 melanoma was greater than 100 µM each time.
Turning to `COCC1OC(N2C(=O)NC(=O)[C@@H]3C=C4CCCCC4=C[C@@H]32)C(OC)C1OC` (stereo not given in full), the TGI with SNB-75 CNS, with HS 578T breast, with ACHN renal, with K-562 leukemia, with SNB-19 CNS and with HT29 colon was greater than 100 µM throughout. The TGI with SN12C renal, with PC-3 prostate, in the experiment on MDA-MB-435, in the experiment with A549 NSCLC, in the experiment on OVCAR-8 ovarian and in the experiment with MDA-N was greater than 100 µM each time. Also, the TGI in the experiment on NCI-H226 lung, in the experiment on A498 renal, in the experiment on SR leukemia and with SK-MEL-2 melanoma was greater than 100 µM in each case.
Regarding `Cn1c([O-])nc(-n2cc[n+](C)c2)cc1=O`, the TGI with HS 578T breast, in the experiment on ACHN renal, with K-562 leukemia, with NCI-H23 lung, in the experiment with SNB-19 CNS and with HT29 colon was greater than 100 µM throughout. The TGI in the experiment on SN12C renal, in the experiment on PC-3 prostate, in the experiment on MDA-MB-435, in the experiment on A549 NSCLC, in the experiment on MDA-N and in the experiment on NCI-H226 lung was greater than 100 µM throughout. Further, the total growth inhibition concentration (TGI) in the experiment on A498 renal, in the experiment on CCRF-CEM leukemia, with SR leukemia and with SK-MEL-2 melanoma was greater than 100 µM throughout.
`NC(=O)c1cc2ccccc2o/c1=N/O`: the total growth inhibition concentration (TGI) in the experiment with SNB-75 CNS is greater than 100 µM; with HS 578T breast, 91.6 µM; with ACHN renal, greater than 100 µM; in the experiment on K-562 leukemia, greater than 100 µM; in the experiment with NCI-H23 lung it was greater than 100 µM; in the experiment on SNB-19 CNS, greater than 100 µM. Moreover, the TGI in the experiment with HT29 colon is greater than 100 µM; with SN12C renal it was greater than 100 µM; in the experiment with PC-3 prostate, greater than 100 µM; in the experiment with MDA-MB-435, greater than 100 µM; in the experiment with CAKI-1 renal it was 70.3 µM; in the experiment with A549 NSCLC, greater than 100 µM. The TGI in the experiment on OVCAR-8 ovarian, in the experiment on MDA-N, in the experiment on NCI-H226 lung, with CCRF-CEM leukemia, in the experiment on SR leukemia and with SK-MEL-2 melanoma was greater than 100 µM in each case. In addition, in the experiment with HCC-2998 colon, the TGI is greater than 100 µM.
As for `CC1CC(=O)Nc2nc3ccccc3n21` (stereo not given), the concentration for total growth inhibition (TGI) in the experiment on HS 578T breast, with ACHN renal, with K-562 leukemia, in the experiment on NCI-H23 lung, in the experiment with SNB-19 CNS and with HT29 colon was greater than 100 µM in each case. For the same molecule, the concentration for total growth inhibition (TGI) with PC-3 prostate, in the experiment on MDA-MB-435, in the experiment with CAKI-1 renal, in the experiment on A549 NSCLC, in the experiment with OVCAR-8 ovarian and in the experiment with MDA-N was greater than 100 µM in each case. The concentration for total growth inhibition (TGI) with NCI-H226 lung, with A498 renal, in the experiment with CCRF-CEM leukemia, with SR leukemia and in the experiment with SK-MEL-2 melanoma was greater than 100 µM throughout.
Regarding `Brc1cc2nn(-c3ccccc3)nc2c2nonc12`, the TGI with SNB-75 CNS, with HS 578T breast, in the experiment on ACHN renal, in the experiment on K-562 leukemia, in the experiment on NCI-H23 lung and with SNB-19 CNS was greater than 100 µM throughout. Also, the TGI in the experiment on HT29 colon, with SN12C renal, in the experiment on PC-3 prostate, in the experiment on MDA-MB-435, with CAKI-1 renal and in the experiment with A549 NSCLC was greater than 100 µM throughout. Moreover, the TGI in the experiment with OVCAR-8 ovarian, in the experiment on MDA-N, in the experiment with NCI-H226 lung, in the experiment with CCRF-CEM leukemia, in the experiment with SR leukemia and in the experiment with SK-MEL-2 melanoma was greater than 100 µM throughout. Moreover, the concentration for total growth inhibition (TGI) in the experiment on HCC-2998 colon was greater than 100 µM.
`O=[N+]([O-])c1ccc(NC(=S)N=Nc2c(O)[nH]c3ccc(Br)cc23)cc1`: the total growth inhibition concentration (TGI) is 30.7 µM in the experiment on SNB-75 CNS; 39.6 µM with HS 578T breast; 18 µM in the experiment on ACHN renal; greater than 100 µM in the experiment on K-562 leukemia; 12.9 µM in the experiment with NCI-H23 lung; 24.9 µM in the experiment with HT29 colon. Besides, the TGI with SN12C renal worked out at 23.8 µM; in the experiment with PC-3 prostate, 20.7 µM; with MDA-MB-435 it was 25.4 µM; in the experiment on CAKI-1 renal, 20.6 µM; in the experiment on OVCAR-8 ovarian, 20 µM; in the experiment on MDA-N it was 23.5 µM. In addition, the TGI with NCI-H226 lung came out at 38.1 µM; in the experiment with A498 renal it was 17.2 µM; with SR leukemia, 42.7 µM; in the experiment on SK-MEL-2 melanoma it was 28.4 µM.

The values are drawn from PubChem BioAssay (NCI).
